# From PubChem BioAssay (NCI)
#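 Results reflect a 48-hour exposure of cells in 96-well plates to compound at five concentrations. TGI denotes the concentration required for complete inhibition of growth.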
# Legend:
# Experiment in all cases: NCI tumour cell line growth inhibition, 48 h
# M14 melanoma = tested on: M14 melanoma
# M19-MEL melanoma = tested on: M19-MEL melanoma
# SW-620 colon = tested on: SW-620 colon
# OVCAR-8 ovarian = tested on: OVCAR-8 ovarian
# TK-10 renal = tested on: TK-10 renal
# HL-60(TB) leukemia = tested on: HL-60(TB) leukemia
# SK-MEL-5 melanoma = tested on: SK-MEL-5 melanoma
# MALME-3M melanoma = tested on: MALME-3M melanoma
# HOP-92 NSCLC = tested on: HOP-92 NSCLC
# IGROV1 ovarian = tested on: IGROV1 ovarian
# HCT-15 colon = tested on: HCT-15 colon
# HT29 colon = tested on: HT29 colon
# NCI-H23 lung = tested on: NCI-H23 lung
# U251 CNS = tested on: U251 CNS
# SF-268 CNS = tested on: SF-268 CNS
# RXF 393 renal = tested on: RXF 393 renal
# MOLT-4 leukemia = tested on: MOLT-4 leukemia
# OVCAR-3 ovarian = tested on: OVCAR-3 ovarian
# DMS 273 small cell lung = tested on: DMS 273 small cell lung
# SK-MEL-2 melanoma = tested on: SK-MEL-2 melanoma
# A549 NSCLC = tested on: A549 NSCLC
# NCI-H460 lung = tested on: NCI-H460 lung
# HCT-116 colon = tested on: HCT-116 colon
# SK-OV-3 ovarian = tested on: SK-OV-3 ovarian
# LXFL 529 NSCLC = tested on: LXFL 529 NSCLC
# SF-295 CNS = tested on: SF-295 CNS
# KM20L2 colon = tested on: KM20L2 colon
# HOP-18 NSCLC = tested on: HOP-18 NSCLC
# UACC-257 melanoma = tested on: UACC-257 melanoma
# SF-539 CNS = tested on: SF-539 CNS
# SNB-75 CNS = tested on: SNB-75 CNS
# LOX IMVI melanoma = tested on: LOX IMVI melanoma
# 786-0 renal = tested on: 786-0 renal
# SR leukemia = tested on: SR leukemia
# UO-31 renal = tested on: UO-31 renal
# OVCAR-4 ovarian = tested on: OVCAR-4 ovarian
# DLD-1 colon = tested on: DLD-1 colon
# SK-MEL-28 melanoma = tested on: SK-MEL-28 melanoma
# RPMI-8226 leukemia = tested on: RPMI-8226 leukemia
# HOP-62 NSCLC = tested on: HOP-62 NSCLC
# CAKI-1 renal = tested on: CAKI-1 renal
# OVCAR-5 ovarian = tested on: OVCAR-5 ovarian
# SN12C renal = tested on: SN12C renal
# CCRF-CEM leukemia = tested on: CCRF-CEM leukemia
# NCI-H226 lung = tested on: NCI-H226 lung
# COLO 205 colon = tested on: COLO 205 colon
# A498 renal = tested on: A498 renal
# DMS 114 small cell lung = tested on: DMS 114 small cell lung
# KM12 colon = tested on: KM12 colon
# UACC-62 melanoma = tested on: UACC-62 melanoma
# SNB-78 CNS = tested on: SNB-78 CNS
# K-562 leukemia = tested on: K-562 leukemia
# ACHN renal = tested on: ACHN renal
# SNB-19 CNS = tested on: SNB-19 CNS
# EKVX NSCLC = tested on: EKVX NSCLC
# HCC-2998 colon = tested on: HCC-2998 colon
# NCI-H522 lung = tested on: NCI-H522 lung
# XF 498 CNS = tested on: XF 498 CNS
structure (smiles),measurement,setting,value
c1ccc(C2OCCO2)c(OCCOc2cc(OCCOc3ccccc3C3OCCO3)c(OCCOc3ccccc3C3OCCO3)cc2OCCOc2ccccc2C2OCCO2)c1,TGI,M14 melanoma,> 100 µM
same,TGI,M19-MEL melanoma,> 100 µM
same,TGI,SW-620 colon,> 100 µM
same,TGI,OVCAR-8 ovarian,> 100 µM
same,TGI,TK-10 renal,31.4 µM
same,TGI,HL-60(TB) leukemia,> 100 µM
same,TGI,SK-MEL-5 melanoma,> 100 µM
same,TGI,MALME-3M melanoma,> 100 µM
same,TGI,HOP-92 NSCLC,21 µM
same,TGI,IGROV1 ovarian,28.6 µM
same,TGI,HCT-15 colon,> 100 µM
same,TGI,HT29 colon,> 100 µM
same,TGI,NCI-H23 lung,27.3 µM
same,TGI,U251 CNS,23.9 µM
same,TGI,SF-268 CNS,66.5 µM
same,TGI,RXF 393 renal,18.2 µM
same,TGI,MOLT-4 leukemia,> 100 µM
same,TGI,OVCAR-3 ovarian,46.8 µM
same,TGI,DMS 273 small cell lung,50.9 µM
same,TGI,SK-MEL-2 melanoma,47.9 µM
same,TGI,A549 NSCLC,> 100 µM
same,TGI,NCI-H460 lung,> 100 µM
same,TGI,HCT-116 colon,44.2 µM
same,TGI,SK-OV-3 ovarian,13.7 µM
same,TGI,LXFL 529 NSCLC,> 100 µM
same,TGI,SF-295 CNS,> 100 µM
same,TGI,KM20L2 colon,> 100 µM
same,TGI,HOP-18 NSCLC,> 100 µM
same,TGI,UACC-257 melanoma,> 100 µM
same,TGI,SF-539 CNS,32.7 µM
same,TGI,SNB-75 CNS,7.06 µM
same,TGI,LOX IMVI melanoma,> 100 µM
same,TGI,786-0 renal,17.3 µM
same,TGI,SR leukemia,> 100 µM
same,TGI,UO-31 renal,53.2 µM
same,TGI,OVCAR-4 ovarian,30.2 µM
same,TGI,DLD-1 colon,> 100 µM
same,TGI,SK-MEL-28 melanoma,> 100 µM
same,TGI,RPMI-8226 leukemia,> 100 µM
same,TGI,HOP-62 NSCLC,28.6 µM
same,TGI,CAKI-1 renal,> 100 µM
same,TGI,OVCAR-5 ovarian,> 100 µM
same,TGI,SN12C renal,> 100 µM
same,TGI,CCRF-CEM leukemia,> 100 µM
same,TGI,NCI-H226 lung,47.3 µM
same,TGI,COLO 205 colon,> 100 µM
same,TGI,A498 renal,35.4 µM
same,TGI,DMS 114 small cell lung,29.9 µM
same,TGI,KM12 colon,> 100 µM
same,TGI,UACC-62 melanoma,37.6 µM
same,TGI,SNB-78 CNS,28 µM
same,TGI,K-562 leukemia,> 100 µM
same,TGI,ACHN renal,> 100 µM
CCOC(=O)c1nc(-c2ccccc2)oc1OCC,TGI,SNB-19 CNS,> 100 µM
same,TGI,M14 melanoma,> 100 µM
same,TGI,M19-MEL melanoma,> 100 µM
same,TGI,EKVX NSCLC,38.6 µM
same,TGI,HCC-2998 colon,> 100 µM
same,TGI,SW-620 colon,> 100 µM
same,TGI,OVCAR-8 ovarian,> 100 µM
same,TGI,TK-10 renal,> 100 µM
same,TGI,HL-60(TB) leukemia,> 100 µM
same,TGI,SK-MEL-5 melanoma,> 100 µM
same,TGI,IGROV1 ovarian,> 100 µM
same,TGI,HT29 colon,> 100 µM
same,TGI,NCI-H23 lung,> 100 µM
same,TGI,U251 CNS,> 100 µM
same,TGI,SF-268 CNS,> 100 µM
same,TGI,RXF 393 renal,> 100 µM
same,TGI,MOLT-4 leukemia,> 100 µM
same,TGI,OVCAR-3 ovarian,> 100 µM
same,TGI,DMS 273 small cell lung,> 100 µM
same,TGI,A549 NSCLC,> 100 µM
same,TGI,NCI-H460 lung,> 100 µM
same,TGI,HCT-116 colon,> 100 µM
same,TGI,SK-OV-3 ovarian,> 100 µM
same,TGI,LXFL 529 NSCLC,> 100 µM
same,TGI,SF-295 CNS,> 100 µM
same,TGI,KM20L2 colon,> 100 µM
same,TGI,HOP-18 NSCLC,> 100 µM
same,TGI,SF-539 CNS,> 100 µM
same,TGI,SNB-75 CNS,> 100 µM
same,TGI,LOX IMVI melanoma,> 100 µM
same,TGI,786-0 renal,> 100 µM
same,TGI,OVCAR-4 ovarian,> 100 µM
same,TGI,DLD-1 colon,> 100 µM
same,TGI,SK-MEL-28 melanoma,> 100 µM
same,TGI,NCI-H522 lung,> 100 µM
same,TGI,RPMI-8226 leukemia,> 100 µM
same,TGI,HOP-62 NSCLC,> 100 µM
same,TGI,SN12C renal,> 100 µM
same,TGI,CCRF-CEM leukemia,> 100 µM
same,TGI,NCI-H226 lung,> 100 µM
same,TGI,COLO 205 colon,> 100 µM
same,TGI,XF 498 CNS,> 100 µM
same,TGI,DMS 114 small cell lung,> 100 µM
same,TGI,KM12 colon,> 100 µM
same,TGI,UACC-62 melanoma,> 100 µM
same,TGI,SNB-78 CNS,> 100 µM
same,TGI,K-562 leukemia,> 100 µM
